Assay results reported in patent publication US12060347B2 (BRISTOL-MYERS SQUIBB COMPANY, priority 2016, dated 2024).

What follows are compounds tested against T1, human PAR4 (Homo sapiens, UniProt Q96RI0) (assay: PAR4 FLIPR assay: antagonism of agonist-peptide-induced calcium mobilization in PAR4-expressing HEK293 cells). Settings: H-Ala-Phe(4-F)-[…]NH2-induced intracellular calcium mobilization, 11-point curves.
T1 construct: expressed in transfected cells; host or cells: HEK293 PAR4 Clone 1.2A (BMS Arctic ID 383940)
T1 sequence (Q96RI0 18-385): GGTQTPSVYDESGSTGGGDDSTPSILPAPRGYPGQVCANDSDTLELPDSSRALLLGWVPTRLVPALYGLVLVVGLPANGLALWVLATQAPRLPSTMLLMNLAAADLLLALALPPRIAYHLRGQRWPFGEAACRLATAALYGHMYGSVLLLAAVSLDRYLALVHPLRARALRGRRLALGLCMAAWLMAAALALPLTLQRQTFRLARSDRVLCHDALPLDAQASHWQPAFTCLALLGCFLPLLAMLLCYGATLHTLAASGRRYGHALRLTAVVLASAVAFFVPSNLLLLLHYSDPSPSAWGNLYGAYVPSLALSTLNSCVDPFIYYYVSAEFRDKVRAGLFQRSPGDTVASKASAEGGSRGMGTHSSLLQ
Format: cell-based

SMILES | IC50 [nM]
COc1cnc2c(-c3nc4c(Cl)c(F)c(OCCOC(=O)Nc5nsc(OC)n5)cc4s3)cc(C)cc2n1 [Example 363, 2-((4-chloro-5-fluoro-2-(2-methoxy-7-methylquinoxalin-5-yl)benzo[d]thiazol-6-yl)oxy)ethyl (5-methoxy-1,2,4-thiadiazol-3-yl)carbamate] | 1700
COc1cnc2c(-c3nc4c(Cl)c(F)c(OCCOC(=O)Nc5cn[nH]c5)cc4s3)cc(C)cc2n1 [Example 364, 2-((4-chloro-5-fluoro-2-(2-methoxy-7-methylquinoxalin-5-yl)benzo[d]thiazol-6-yl)oxy)ethyl 1H-pyrazol-4-ylcarbamate] | 19
COc1cnc2c(-c3nc4c(Cl)c(F)c(OCCOC(=O)Nc5nnc(C)o5)cc4s3)cc(C)cc2n1 [Example 366, 2-((4-chloro-5-fluoro-2-(2-methoxy-7-methylquinoxalin-5-yl)benzo[d]thiazol-6-yl)oxy)ethyl (5-methyl-1,3,4-oxadiazol-2-yl) carbamate] | 550
COc1cnc2c(-c3nc4c(Cl)c(F)c(OCCOC(=O)Nc5cnc6c(c5)cc(C)n6C)cc4s3)cc(C)cc2n1 [Example 367, 2-((4-chloro-5-fluoro-2-(2-methoxy-7-methylquinoxalin-5-yl)benzo[d]thiazol-6-yl)oxy)ethyl (1,2-dimethyl-1H-pyrrolo[2,3-b]pyridin-5-yl)carbamate] | 12
COc1cnc2c(-c3nc4c(Cl)c(F)c(OCCOC(=O)NCc5ccncc5)cc4s3)cc(C)cc2n1 [Example 369, 2-((4-chloro-5-fluoro-2-(2-methoxy-7-methylquinoxalin-5-yl)benzo[d]thiazol-6-yl)oxy)ethyl (pyridin-4-ylmethyl)carbamate] | 13

More lines, now with the values ahead:

IC50 [nM] | SMILES
4.1 | COc1cnc2c(-c3nc4c(Cl)c(F)c(OCCOC(=O)Nc5cnc(C)nc5)cc4s3)cc(C)cc2n1 [Example 362, 2-((4-chloro-5-fluoro-2-(2-methoxy-7-methylquinoxalin-5-yl)benzo[d]thiazol-6-yl)oxy)ethyl (2-methylpyrimidin-5-yl)carbamate]
2.5 | COc1cnc2c(-c3nc4c(Cl)c(F)c(OCCOC(=O)Nc5cnn(C)c5)cc4s3)cc(C)cc2n1 [Example 365, 2-((4-chloro-5-fluoro-2-(2-methoxy-7-methylquinoxalin-5-yl)benzo[d]thiazol-6-yl)oxy) ethyl (1-methyl-1H-pyrazol-4-yl)carbamate]
5.8 | COc1cnc2c(-c3nc4c(Cl)c(F)c(OC[C@@H](C)OC(=O)Nc5nnc(C)s5)cc4s3)cc(C)cc2n1 [Example 370, (R)-1-((4-chloro-5-fluoro-2-(2-methoxy-7-methylquinoxalin-5-yl)benzo[d]thiazol-6-yl)oxy)propan-2-yl (5-methyl-1,3,4-thiadiazol-2-yl)carbamate]
1.8 | COc1cnc2c(-c3nc4c(Cl)c(F)c(OC[C@@H](C)OC(=O)Nc5ccc(C#N)nc5)cc4s3)cc(C)cc2n1 [Example 371, (R)-1-((4-chloro-5-fluoro-2-(2-methoxy-7-methylquinoxalin-5-yl)benzo[d]thiazol-6-yl)oxy)propan-2-yl (6-cyanopyridin-3-yl)carbamate]
1.3 | COc1cnc2c(-c3nc4c(Cl)c(F)c(OC[C@@H](C)OC(=O)Nc5cccnc5)cc4s3)cc(C)cc2n1 [Example 372, (R)-1-((4-chloro-5-fluoro-2-(2-methoxy-7-methylquinoxalin-5-yl)benzo[d]thiazol-6-yl)oxy)propan-2-yl pyridin-3-ylcarbamate]
0.9 | COc1cnc2c(-c3nc4c(Cl)c(F)c(OC[C@@H](C)OC(=O)Nc5ccc6[nH]c(=O)oc6c5)cc4s3)cc(C)cc2n1 [Example 373, (R)-1-((4-chloro-5-fluoro-2-(2-methoxy-7-methylquinoxalin-5-yl)benzo[d]thiazol-6-yl)oxy)propan-2-yl (2-oxo-2,3-dihydrobenzo[d]oxazol-6-yl)carbamate]
